Test results: patent publication US11896644B2, “Inhibition of beta-arrestin oligomerization in tauopathy” (UNIVERSITY OF SOUTH FLORIDA, priority 2020, dated 2024)
Values belong to the compound of their own block, whether it stands above or below them.

Legend:
[1] = biological target: T1, GFP-βarrestin2/Flag-βarrestin2 complexes (βarrestin2 self-interaction) (Rattus norvegicus, UniProt P29067); assay: Co-immunoprecipitation (co-IP) for GFP-βarrestin2/Flag-βarrestin2 complexes; type: cell-based; details: 20 μM, 6 hours, Hela-V5-tau cells
T1 construct: expressed in transfected cells; host or cells: Hela-V5-tau cells
Experimental: (§1) Brain homogenates and cultured cells were lysed with RIPA buffer (50 mM Tris pH 7.4, 150 mM NaCl, 2 mM ethlenediaminetetraacetic acid, 1% NP-40, 0.1% sodium dodecyl sulfate) plus protease and phosphatase inhibitors. Proteins were extracted and centrifuged at 15000 rpm for 15 min at 4° C., and RIPA insoluble fractions were lysed with 5% SDS with 1% β-mercaptoethanol, 50 mM Tris-HCl pH 6.8, 12.5 mM EDTA, 10% glycerol, and 0.02% bromophenol blue. Supernatants were used for western blot analysis. […]. co-IP experiments were carried out from NP40 lysates or indicated buffers with preclearing with IgG beads followed by IP with IgG beads alone or IgG beads+indicated antibodies, extensive washing (5×) with the original buffer, and Western blotting on SDS-PAGE. Sarkosyl extraction was performed as previously described (Hasegawa M, et al. (2007) Brain 130(Pt 5):1386-1394). Briefly, brain homogenates were lysed with A68 buffer containing 10 mM Tris-HCl, pH 7.4, 0.8M NaCl, 10% Sucrose, 1 mM EGTA). Samples were centrifuged at 400 g for 20 min at 4° C., and 1% sarkosyl was added to the collected supernatants. The samples were incubated for 1.5 h and centrifuged at 80,000 g for 30 min at room temperature. The pellets were resuspended in 100 ul of 50 mM Tris-HCl, pH 7.4.
FIGS. 28A and 28B show compounds C2 and C2 inhibit β-arrestin2 oligomerization. […]

[2] = test system: sarkosyl-insoluble tau in HeLa-V5-tau cells; assay: Sarkosyl soluble and insoluble fractionation of compound-treated HeLa-V5-tau cells; type: cell-based; details: 20 μM, 6 hours
Experimental: as §1
FIGS. 27A and 27B show C1 and C2 compounds reduce pathogenic tau. […]

[3] = test system: HT7 (total human tau) in Tau-P301S hippocampal primary neurons; assay: HT7 staining of DIV21 hippocampal primary neurons from Tau-P301S mice treated with compounds; type: cell-based; details: 20 μM, 6 hours
Experimental: Primary mouse hippocampal and cortical neuronal cultures were previously described (Woo J A, et al. (2019) Commun Biol 2:112; Woo J A, et al. (2017) Hum Mol Genet 26(20):3973-3988; Woo J A, et al. (2015) Cell Death Differ 22(6):1069-1070). Briefly, primary neurons were prepared from P0 mice. Both hippocampus and cortex were dissected separately in HBSS and digested with trypsin. Neurons were plated on glass coverslips coated with poly-D-lysine (Sigma-Aldrich, St Louis, MO, USA) and maintained in neurobasal medium with glutamax (Invitrogen, Carlsbad, CA, USA) and B27 supplement (Invitrogen, Carlsbad, CA, USA).
Cells were fixed with 4% paraformaldehyde for 15 min at room temperature and washed with 0.2% triton in TBS and blocked using 3% BSA with 0.1% triton x-100 for 1 hr, incubated with primary antibodies for overnight at 4° C. and fluorescently labeled secondary antibodies for 45 min at room temperature. […] Images were captured with the Olympus FV10i confocal microscope (Tokyo, Japan), and the immunoreactivities were quantified using the Image J software (National Institutes of Health, Bethesda, MD). Immunoreactivities were quantitated from every 12th serial section through an entire hippocampus. […] Regions of interest were chosen randomly, and investigators were blinded to experimental conditions during image acquisition and quantification. […]

[4] = test system: total tau levels in HeLa-V5-tau cells; assay: Total tau by western blotting in HeLa-V5-tau cells treated with compounds; type: cell-based; details: 10 μM, 6 hours
Experimental: as §1
(n=4, one-way ANOVA, post hoc Dunnett's, **P<0.005, ***P<0.0005).

[5] = biological target: T2, GFP-βarrestin2/Flag-βarrestin2 complexes (β-arrestin2 oligomerization) (Rattus norvegicus, UniProt P29067); assay: Proximity ligation assay (PLA) for GFP-βarrestin2/Flag-βarrestin2 complexes; type: cell-based; details: 20 μM, 6 hours, Hela-V5-tau cells
T2 construct: expressed in transfected cells; host or cells: Hela-V5-tau cells
Experimental: The assay was performed using commercially available reagents (Duolink, Sigma-Aldrich, St Louis, MO), with transfection of Hela V5-tau cells with WT β-arrestin2-flag and β-arrestin2-myc, without and with the mutant β-arrestin2 ΔIP6C or β-arrestin2 ΔIP6N constructs. Cells were fixed with 4% paraformaldehyde for 15 min at room temperature and washed with 0.2% triton in TBS. After washing, cells were blocked with 0.2% Triton in 3% Normal goat serum for 1 hour at room temperature. After applying primary antibodies overnight at 4° C., cells were washed and incubated with the PLA probes at 37° C. (1 h), washed with buffer A, incubated with ligation solution at 37° C. (30 min), washed with washing buffer A, incubated with amplification solution at 37° C. (100 min), and washed with washing buffer B before mounting.
FIGS. 28A and 28B show compounds C2 and C2 inhibit β-arrestin2 oligomerization. Hela-V5-tau cells were transfected with GFP-βarrestin2 and Flag-βarrestin2 and treated with 20 μM of 01, C1, or C2 for 6 hours.

[6] = biological target: T3, β-arrestin2 oligomerization (Rattus norvegicus, UniProt P29067); assay: FRET assay CFP-βarrestin2/YFP-βarrestin2 in Hela-V5-tau cells; type: cell-based; details: 20 μM, 30 min
T3 construct: expressed in transfected cells; host or cells: Hela-V5-tau cells

phospho-tau [7] = assay: Phospho-tau immunoblot in Hela-V5-tau cells transfected with siRNA and treated with GPCR agonists; type: cell-based; details: for tau phosphorylation: 10 μM, control siRNA or β-arrestin2 siRNA experiment (FIGS. 13E,13F); for phospho-tau response in β-arrestin1 siRNA transfected cells: β-arrestin1 knockdown; for tau phosphorylation, control siRNA transfected cells: β-arrestin1 siRNA experiments (FIGS. 13A-13D)
Experimental: FIGS. 13A to 13F show β-arrestin1 is required for mGluR2 and β2AR mediated increase in pathogenic tau. […] After transfection, cells were treated with either vehicle or 10 μM isoproterenol (Iso), lysed and immunoblotted for indicated proteins. Representative blots are shown. […] 1-way ANOVA with Dunnett's test. […] Representative blots are shown. […] 1-way ANOVA with Dunnett's test. […] 1-way ANOVA with Dunnett's test.
At present, it is not clear how different GPCRs, such as β2AR and mGluR2, and their agonists alter tau phosphorylation. One commonality of downstream signaling between these GPCRs is β-arrestin1 and β-arrestin2, which were initially identified and characterized based on its function to internalize and desensitize GPCRs, including β2AR (Lohse, M. J. et al. J Biol Chem (1992) 267:8558-8564) and mGluR2 (lacovelli, L. et al. Mol Pharmacol (2009) 75:991-1003). To test whether β-arrestin1 and/or β-arrestin2 is required for β2AR-mediated regulation of tau, Hela-V5-tau cells were transfected with control siRNA or β-arrestin1 siRNA and treated either vehicle or 10 μM Iso. […] Next, assessed was whether β-arrestin1 is required for mGluR2-mediated tau phosphorylation. […] Next, Hela-V5-tau cells were transfected with control siRNA or β-arrestin2 siRNA and treated vehicle, 10 μM Iso or LY-379,268.

phospho-tau [8] = assay: Phospho-tau in tauP301S cortical primary neurons treated with GPCR agonists; type: cell-based, mice; details: 10 μM
Source text: FIGS. 20A to 20E show β-arrestin is required mGluR2 and β2AR mediated tau accumulation and phosphorylation. […] Representative blots are shown. […] Unpaired t-test. All data are presented as mean±SEM. […] Representative blots are shown. […] Unpaired t-test. All data are presented as mean±SEM. […] Representative blots are shown.
Based on these prior observations, the goal was to confirm these findings in tauP301S transgenic primary neurons and Hela cells stably expressing tau (V5-tagged 4R0N tau, Hela-V5-tau cells).

tau phosphorylation [9] = details: cited from earlier work
tau phosphorylation [10] = details: cited from earlier work; remark: listed apart in the source

T2 sequence (P29067 whole entry, one chain of several): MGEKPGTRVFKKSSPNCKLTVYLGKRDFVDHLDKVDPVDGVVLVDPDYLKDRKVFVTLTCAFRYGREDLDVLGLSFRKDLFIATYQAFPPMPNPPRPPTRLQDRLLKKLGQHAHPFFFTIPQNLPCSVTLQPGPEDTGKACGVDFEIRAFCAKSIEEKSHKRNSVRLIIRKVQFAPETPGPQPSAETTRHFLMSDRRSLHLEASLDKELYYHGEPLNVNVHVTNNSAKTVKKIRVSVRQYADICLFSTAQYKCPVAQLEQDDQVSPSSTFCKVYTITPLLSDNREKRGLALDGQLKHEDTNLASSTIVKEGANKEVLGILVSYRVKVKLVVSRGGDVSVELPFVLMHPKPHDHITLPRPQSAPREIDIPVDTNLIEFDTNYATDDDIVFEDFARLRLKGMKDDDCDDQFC
T1 sequence (P29067 whole entry, one chain of several): as above
T3 sequence (P29067 whole entry): as the sequence (P29067 whole entry, one chain of several) above

βarrestin2 oligomerization by PLA [5]: significant reduction
SMILES: O=C(CNC(=O)c1ccc2c(c1)CCC2)NCc1cn2ccccc2n1 [C1, 2-[(2,3-dihydro-1H-inden-5-yl)formamido]-N-({imidazo[1,2-a]pyridin-2-yl}methyl)acetamide]
βarrestin2 self-interaction by co-IP [1]: reduce βarrestin2 self-interaction to background levels
sarkosyl-insoluble tau levels [2]: significantly decreased
HT7 immunoreactivity (total human tau) [3]: significantly decreased
total tau levels [4]: significantly decreased

CFP to YFP FRET signal [6]: reduces CFP to YFP FRET signal
βarrestin2 oligomerization by PLA [5]: significant reduction
SMILES: Cc1ccc(NCCNC(=O)c2cc(-c3ccccc3)no2)nn1 [C2, N-{2-[(6-methylpyridazin-3-yl)amino]ethyl}-3-phenyl-1,2-oxazole-5-carboxamide]
βarrestin2 self-interaction by co-IP [1]: reduce βarrestin2 self-interaction to background levels
sarkosyl-insoluble tau levels [2]: significantly decreased
HT7 immunoreactivity (total human tau) [3]: significantly decreased
total tau levels [4]: significantly decreased

SMILES: CC(C)NCC(O)c1ccc(O)c(O)c1 (stereo not drawn) [Isoproterenol]
tau phosphorylation (phospho-tau [7]): increased
phospho-tau response in β-arrestin1 siRNA transfected cells (phospho-tau [7]): failed to respond
tau phosphorylation, control siRNA transfected cells (phospho-tau [7]): increased
phospho-tau (phospho-tau [8]): significantly increased
tau phosphorylation in rats (tau phosphorylation [9]): markedly increases tau phosphorylation

SMILES: N[C@@]1(C(=O)O)CO[C@H]2[C@H](C(=O)O)[C@H]21 [LY-379,268]
tau phosphorylation (phospho-tau [7]): increased
phospho-tau response in β-arrestin1 siRNA transfected cells (phospho-tau [7]): failure to respond
tau phosphorylation, control siRNA transfected cells (phospho-tau [7]): increased
tau phosphorylation via ERK activation (tau phosphorylation [10]): increase tau phosphorylation
phospho-tau (phospho-tau [8]): increased
